Assays:
human orexin-1 receptor = biological target: T1, human orexin-1 receptor (Homo sapiens, UniProt O43613); experiment: Intracellular calcium measurements (FLIPR), orexin receptor antagonistic activity; type: cell-based; conditions: FLIPR2; CHO cells expressing human orexin-1 receptor; 3 nM orexin-A; read-out: OX1 IC50
T1 construct: expressed in transfected cells; host or cells: Chinese hamster ovary (CHO) cells, G418 selection
T1 sequence (O43613 1-425): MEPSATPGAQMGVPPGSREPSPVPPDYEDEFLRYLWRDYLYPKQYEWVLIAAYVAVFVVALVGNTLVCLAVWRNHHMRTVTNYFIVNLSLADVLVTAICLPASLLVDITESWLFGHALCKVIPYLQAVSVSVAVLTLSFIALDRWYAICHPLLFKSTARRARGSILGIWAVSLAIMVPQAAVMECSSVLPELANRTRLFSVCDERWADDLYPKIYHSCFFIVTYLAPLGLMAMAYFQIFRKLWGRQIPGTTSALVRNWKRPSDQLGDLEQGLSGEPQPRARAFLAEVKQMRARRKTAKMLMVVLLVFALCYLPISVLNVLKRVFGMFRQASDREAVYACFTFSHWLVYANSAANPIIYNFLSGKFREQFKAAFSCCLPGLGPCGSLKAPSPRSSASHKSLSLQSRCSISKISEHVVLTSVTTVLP
Method: (§1) The orexin receptor antagonistic activity of the compounds of formula (I) is determined in accordance with one of the following experimental methods.
(§2) Intracellular Calcium Measurements:
(§3) Chinese hamster ovary (CHO) cells expressing the human orexin-1 receptor and the human orexin-2 receptor, respectively, are grown in culture medium (Ham F-12 with L-Glutamine) containing 300 μg/ml G418, 100 U/ml penicillin, 100 μg/ml streptomycin and 10% heat inactivated fetal calf serum (FCS). The cells are seeded at 20'000 cells/well into 384-well black clear bottom sterile plates (Greiner). The seeded plates are incubated overnight at 37° C. in 5% CO2.
(§4) Human orexin-A as an agonist is prepared as 1 mM stock solution in MeOH:water (1:1), diluted in HBSS containing 0.1% bovine serum albumin (BSA), NaHCO3:0.375 g/l and 20 mM HEPES for use in the assay at a final concentration of 3 nM.
(§5) Antagonists are prepared as 10 mM stock solution in DMSO, then diluted in 384-well plates, first in DMSO, then in HBSS containing 0.1% bovine serum albumin (BSA), NaHCO3: 0.375 g/l and 20 mM HEPES.
(§6) On the day of the assay, 50 μl of staining buffer (HBSS containing 1% FCS, 20 mM HEPES, NaHCO3: 0.375 g/l, 5 mM probenecid (Sigma) and 3 μM of the fluorescent calcium indicator fluo-4 AM (1 mM stock solution in DMSO, containing 10% pluronic) is added to each well.
(§7) The 384-well cell-plates are incubated for 50 min at 37° C. in 5% CO2 followed by equilibration at RT for 30-120 min before measurement.
(§8) Within the Fluorescent Imaging Plate Reader (FLIPR2 or FLIPR Tetra, Molecular Devices), antagonists are added to the plate in a volume of 10 μl/well, incubated for 10 min and finally 10 μl/well of agonist is added. Fluorescence is measured for each well at 1 second intervals, and the height of each fluorescence peak is compared to the height of the fluorescence peak induced by 3 nM orexin-A with vehicle in place of antagonist. For each antagonist, the IC50 value (the concentration of compound needed to inhibit 50% of the agonistic response) is determined. With the FLIPR Tetra, non-optimized and optimized conditions were used. Optimized conditions were achieved by adjustment of pipetting speed and cell splitting regime. The calculated IC50 values of the compounds may fluctuate depending on the daily cellular assay performance. Fluctuations of this kind are known to those skilled in the art.

human orexin-2 receptor = biological target: T2, human orexin-2 receptor (Homo sapiens, UniProt O43614); experiment: as above; type: cell-based; conditions: FLIPR2; CHO cells expressing human orexin-2 receptor; 3 nM orexin-A; read-out: OX2 IC50
T2 construct: expressed in transfected cells; host or cells: Chinese hamster ovary (CHO) cells, G418 selection
T2 sequence (O43614 1-444): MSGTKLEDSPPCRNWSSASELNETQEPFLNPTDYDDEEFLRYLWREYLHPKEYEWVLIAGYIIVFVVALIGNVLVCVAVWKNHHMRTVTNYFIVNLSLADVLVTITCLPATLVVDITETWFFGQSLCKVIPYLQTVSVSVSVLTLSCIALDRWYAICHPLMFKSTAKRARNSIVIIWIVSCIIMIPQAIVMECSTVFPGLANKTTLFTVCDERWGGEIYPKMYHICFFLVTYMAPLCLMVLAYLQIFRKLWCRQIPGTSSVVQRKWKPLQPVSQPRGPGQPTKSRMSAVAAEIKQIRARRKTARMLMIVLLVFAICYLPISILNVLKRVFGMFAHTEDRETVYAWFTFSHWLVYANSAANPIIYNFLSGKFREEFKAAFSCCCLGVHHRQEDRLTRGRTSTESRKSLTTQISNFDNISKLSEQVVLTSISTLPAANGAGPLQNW
Method: as §1, §2, §3, §4, §5, §6, §7, §8

| SMILES | IC50 (human orexin-1 receptor) [nM] | IC50 (human orexin-2 receptor) [nM] |
| --- | --- | --- |
| Cc1cccc(-c2sc(C)nc2C(=O)N2C[C@@H]3C[C@@H]3[C@H]2CNC(=O)c2cccc(C(F)(F)F)c2)c1 [Example 45, N-[(1S,2S,5R)-3-(2-Methyl-5-m-tolyl-thiazole-4-carbonyl)-3-aza-bicyclo[3.1.0]hex-2-ylmethyl]-3-trifluoromethyl-benzamide] | 110 | 61 |
| Cc1cccc(-c2sc(C)nc2C(=O)N2C[C@@H]3C[C@@H]3[C@H]2CNC(=O)c2cccc3ccccc23)c1 [Example 52, Naphthalene-1-carboxylic acid[(1S,2S,5R)-3-(2-methyl-5-m-tolyl-thiazole-4-carbonyl)-3-aza-bicyclo[3.1.0]hex-2-ylmethyl]-amide] | 155 | 228 |
| Cc1nc(C(=O)N2C[C@@H]3C[C@@H]3[C@H]2CNC(=O)c2cccc(Br)c2)c(-c2cccc(Cl)c2)s1 [Example 74, 3-Bromo-N-{(1S,2S,5R)-3-[5-(3-chloro-phenyl)-2-methyl-thiazole-4-carbonyl]-3-aza-bicyclo[3.1.0]hex-2-ylmethyl}-benzamide] | 84 | 48 |
| Nc1nc(C(=O)N2C[C@@H]3C[C@@H]3[C@H]2CNC(=O)c2nccc3ccccc23)c(-c2cccc(F)c2)s1 [Example 112, Isoquinoline-1-carboxylic Acid{(1S,2S,5R)-3-[2-amino-5-(3-fluoro-phenyl)-thiazole-4-carbonyl]-3-aza-bicyclo[3.1.0]hex-2-ylmethyl}-amide] | 115 | 12 |
| Cn1cc(C(=O)NC[C@@H]2[C@H]3C[C@H]3CN2C(=O)c2nc(N)sc2-c2cccc(F)c2)c2ccccc21 [Example 115, 1-Methyl-1H-indole-3-carboxylic Acid{(1S,2S,5R)-3-[2-amino-5-(3-fluoro-phenyl)-thiazole-4-carbonyl]-3-aza-bicyclo[3.1.0]hex-2-ylmethyl}-amide] | 178 | 48 |
| Nc1nc(C(=O)N2C[C@@H]3C[C@@H]3[C@H]2CNC(=O)c2cnc3ccccn23)c(-c2cccc(F)c2)s1 [Example 118, Imidazo[1,2-a]pyridine-3-carboxylic Acid{(1S,2S,5R)-3-[2-amino-5-(3-fluoro-phenyl)-thiazole-4-carbonyl]-3-aza-bicyclo[3.1.0]hex-2-ylmethyl}-amide] | 225 | 41 |
| Cc1c(C(=O)NC[C@@H]2[C@H]3C[C@H]3CN2C(=O)c2nc(N)sc2-c2cccc(F)c2)sc2nccn12 [Example 124, 3-Methyl-imidazo[2,1-b]thiazole-2-carboxylic Acid{(1S,2S,5R)-3-[2-amino-5-(3-fluoro-phenyl)-thiazole-4-carbonyl]-3-aza-bicyclo[3.1.0]hex-2-ylmethyl}-amide] | 7030 | 12 |
| Cc1cc(C)cc(C(=O)NC[C@@H]2[C@H]3C[C@H]3CN2C(=O)c2nc(C)sc2-c2cccc(C)c2)c1 [Example 147, 3,5-Dimethyl-N-[(1S,2S,5R)-3-(2-methyl-5-m-tolyl-thiazole-4-carbonyl)-3-aza-bicyclo[3.1.0]hex-2-ylmethyl]-benzamide] | 324 | 26 |
| Cc1cccc(-c2sc(C)nc2C(=O)N2C[C@@H]3C[C@@H]3[C@H]2CNC(=O)c2cc(Br)ccc2Cl)c1 [Example 148, 5-Bromo-2-chloro-N-[(1S,2S,5R)-3-(2-methyl-5-m-tolyl-thiazole-4-carbonyl)-3-aza-bicyclo[3.1.0]hex-2-ylmethyl]-benzamide] | 1080 | 102 |
| Cc1cccc(-c2sc(C)nc2C(=O)N2C[C@@H]3C[C@@H]3[C@H]2CNC(=O)c2cccc3c2OCC(=O)N3)c1 [Example 169, 3-Oxo-3,4-dihydro-2H-benzo[1,4]oxazine-8-carboxylic Acid[(1S,2S,5R)-3-(2-methyl-5-m-tolyl-thiazole-4-carbonyl)-3-aza-bicyclo[3.1.0]hex-2-ylmethyl]-amide] | > 10000 | 61 |
| Cc1cccc(-c2sc(C)nc2C(=O)N2C[C@@H]3C[C@@H]3[C@H]2CNC(=O)c2cccc3c2N(C)CCO3)c1 [Example 177, 4-Methyl-3,4-dihydro-2H-benzo[1,4]oxazine-5-carboxylic Acid[(1S,2S,5R)-3-(2-methyl-5-m-tolyl-thiazole-4-carbonyl)-3-aza-bicyclo[3.1.0]hex-2-ylmethyl]-amide] | 691 | 88 |

Now those with a lower IC50 (human orexin-1 receptor), led by results:

| IC50 (human orexin-1 receptor) [nM] | IC50 (human orexin-2 receptor) [nM] | SMILES |
| --- | --- | --- |
| 26 | 19 | Cc1cccc(-c2sc(C)nc2C(=O)N2C[C@@H]3C[C@@H]3[C@H]2CNC(=O)c2cccc3c2OC(C)(C)C3)c1 [Example 43, 2,2-Dimethyl-2,3-dihydro-benzofuran-7-carboxylic acid[(1S,2S,5R)-3-(2-methyl-5-m-tolyl-thiazole-4-carbonyl)-3-aza-bicyclo[3.1.0]hex-2-ylmethyl]-amide] |
| 81 | 41 | Cc1cccc(-c2sc(C)nc2C(=O)N2C[C@@H]3C[C@@H]3[C@H]2CNC(=O)c2c(C)noc2C)c1 [Example 51, 3,5-Dimethyl-isoxazole-4-carboxylic Acid[(1S,2S,5R)-3-(2-methyl-5-m-tolyl-thiazole-4-carbonyl)-3-aza-bicyclo[3.1.0]hex-2-ylmethyl]-amide] |
| 26 | 18 | Cc1cccc(-c2sc(C)nc2C(=O)N2C[C@@H]3C[C@@H]3[C@H]2CNC(=O)c2nccc3ccccc23)c1 [Example 54, Isoquinoline-1-carboxylic Acid[(1S,2S,5R)-3-(2-methyl-5-m-tolyl-thiazole-4-carbonyl)-3-aza-bicyclo[3.1.0]hex-2-ylmethyl]-amide] |
| 37 | 57 | Cc1cccc(-c2sc(C)nc2C(=O)N2C[C@@H]3C[C@@H]3[C@H]2CNC(=O)c2n[nH]c3ccccc23)c1 [Example 58, 1H-Indazole-3-carboxylic Acid[(1S,2S,5R)-3-(2-methyl-5-m-tolyl-thiazole-4-carbonyl)-3-aza-bicyclo[3.1.0]hex-2-ylmethyl]-amide] |
| 21 | 9 | Cc1nc(C(=O)N2C[C@@H]3C[C@@H]3[C@H]2CNC(=O)c2cccc3c2OC(C)(C)C3)c(-c2cccc(Cl)c2)s1 [Example 73, 2,2-Dimethyl-2,3-dihydro-benzofuran-7-carboxylic Acid{(1S,2S,5R)-3-[5-(3-chloro-phenyl)-2-methyl-thiazole-4-carbonyl]-3-aza-bicyclo[3.1.0]hex-2-ylmethyl}-amide] |
| 29 | 10 | CCn1nc(C)cc1C(=O)NC[C@@H]1[C@H]2C[C@H]2CN1C(=O)c1nc(C)sc1-c1cccc(Cl)c1 [Example 80, 2-Ethyl-5-methyl-2H-pyrazole-3-carboxylic Acid{(1S,2S,5R)-3-[5-(3-chloro-phenyl)-2-methyl-thiazole-4-carbonyl]-3-aza-bicyclo[3.1.0]hex-2-ylmethyl}-amide] |
| 80 | 8 | Cn1nc(C(=O)NC[C@@H]2[C@H]3C[C@H]3CN2C(=O)c2nc(N)sc2-c2cccc(F)c2)c2ccccc21 [Example 117, 1-Methyl-1H-indazole-3-carboxylic Acid{(1S,2S,5R)-3-[2-amino-5-(3-fluoro-phenyl)-thiazole-4-carbonyl]-3-aza-bicyclo[3.1.0]hex-2-ylmethyl}-amide] |

From US8063099B2, “Trans-3-aza-bicyclo[3.1.0]hexane derivatives” (Actelion Pharmaceuticals Ltd., priority 2007, dated 2011)
